Experimental data as given in patent US12479800B2, “Phenylpropionamide compound and use thereof” (MEDSHINE DISCOVERY INC., priority 2020, dated 2025).
Where a SMILES comes first, the peptide text is derived from it. [ ]: non-standard residue; d: D form. The star is where a group is joined. Gly(N-(2R-Ph-propyl)) = C[C@@H](CNCC(=O)O)c1ccccc1; Piperidin1yl(4-NH2,4-COOH) = NC1(C(=O)O)CCN(*)CC1; dGly(cPent) = N[C@@H](C(=O)O)C1CCCC1; dAla(cPr) = N[C@H](CC1CC1)C(=O)O; X1 = CC(=O)N1CC2(CCN(*)CC2)C1

What was measured:
Kappa receptor = Kappa receptor (Homo sapiens (Human), UniProt P41145); assay: cAMP test of Kappa receptor; type: cell-based; settings: KOR cAMP cells; read-out: EC50 value of the compound to Kappa receptor
Method: Experimental Embodiment 1: cAMP Test of Kappa Receptor
Experimental buffer: 1*HBSS (+/+) (SIGMA #H1387)+20 mM HEPES (LONZA #17-737E)
Stimulation buffer (STB): 200 μM IBMX (SIGMA #I7018) and 3 μM NKH477 (SIGMA #N3290) experimental buffer
Experimental Methods and Steps
The compound powder was dissolved with DMSO (Amresco #0231), and the concentration of the compound solution was 10 mM. 1 μL of the test compound was taken, and 49 μL of DMSO was added thereto, and the mixture was diluted to 200 μM of solution.
A LDV 384-well plate was taken, and the compound solution diluted in the previous step was respectively added to wells A1 to H1; a pre-prepared 200 μM of U-50488 (Tocris #0495/25) was taken and added to well P1; 10.8 μL of DMSO was added to each well of A2 to A11, […], and P2 to P11, respectively, and the mixture was centrifuged at 1000 rpm for 30 seconds.
Continuous gradient dilutions of compounds were performed with bravo, and the first column of LDV plate prepared in the previous step was taken as the initial concentration column, and 5 μL was sucked into the next column each time and blown and mixed evenly.
After the dilution was completed, 10 μL 200 μM of U-50488 was added to well A24 as HPE (100% inhibition rate activity), and 10 μL of DMSO was added to well P24 as ZPE (0% inhibition rate activity), and the mixture was centrifuged at 1000 rpm for 30 seconds.
According to the experimental layout, the compound solution diluted in the previous step was transferred to the experimental plate Corning 3824 with Echo 550, 50 nL per well.
A set of frozen KOR cAMP cells was taken from the −80° C. refrigerator and thawed in a 37° C.-water bath.
After thawing, the cells in the tube were aspirated into a 15 mL centrifuge tube, and 4 mL of experimental buffer was added thereto. […]
Cell density was counted and adjusted on a cell counter to 1.5*10^6 cells/mL. […]
Experimental plates were read with Envision.

[1] = In vivo pharmacokinetic study in SD rats; design: species or system Sprague Dawley rats; settings: intravenous 3 mg/kg
Method: To test the in vivo pharmacokinetics of test compound in SD rats
Sprague Dawley rats (male, 6 to 10 weeks old, purchased from Beijing Vital River Laboratory Animal Co., LTD)
Compound 1 was mixed with normal saline to prepare a clear solution of 1 mg/mL for injection group administration, filtered by microporous membranes and ready for use. The test compound was administered intravenously at 3 mg/kg, and the solvent for intravenous administration was normal saline. Plasma samples were collected at 0, 0.083, 0.25, 0.5, 1.0, 2.0, 4.0, 8.0 and 24 hours after administration. The plasma concentration was determined by LC-MS/MS method, and the relevant pharmacokinetic parameters were calculated by non-compartmental model linear logarithmic trapezoidal method using WinNonlin™ Version 6.3 (Pharsight, Mountain View, CA) pharmacokinetic software.

Human hepatocyte = assay: Metabolic stability (HMS) study in human hepatocytes; type: in vitro ADME; settings: 0.5×10^6 cells/mL
Method: (§1) To test the metabolic stability of the test compound in human and rat hepatocytes.
(§2) 2.1 Test Compound (10 mM), Reference Substance: 7-Ethoxycoumarin, 30 mM, 7-Hydroxycoumarin, Reference Substance, 30 mM
(§3) Culture medium for thawing: Williams' E medium containing 5% fetal bovine serum and 30% Percoll solution and other auxiliary materials.
(§4) Culture medium for incubation: Williams' E medium (without phenol red), wherein containing 2 mM L-glutamine and 25 mM of hydroxyethyl piperazine ethanesulfonic acid.
(§5) Termination solution: acetonitrile containing 200 ng/mL of tolbutamide and labetalol as internal standard.
(§6) Dilution solution: ultrapure water. […]
(§7) The elimination rate constant k of the test compound and the control compound in hepatocyte was calculated by plotting the logarithm of the time to the residual rate, and the half-life (T1/2) and the intrinsic clearance rate in vitro (CLint) were obtained by the elimination rate constant k with the following formula: T1/2=0.693/k CLint(hep)=k/number of cells per mL(million cells/mL) CLint(liver)=CLint(hep)×ratio of liver weight to body weight×number of hepatocytes per gram of liver […]

[2] = Plasma protein binding rate (PPB) test, human plasma; type: in vitro ADME; settings: 2 μM, equilibrium dialysis 4 hours 37° C.
Method: (§8) To test the protein binding rate of the test compound in human and SD rat plasma.
(§9) The frozen plasma was thawed in flowing cold tap water, and then the plasma was centrifuged at 3220×g for 5 minutes to remove the suspension and precipitate. The pH of plasma was determined, and only the plasma with a pH between 7.0 to 8.0 could be used for experiments.
(§10) The experiment was used a 96-well balanced dialysis plate (HTDialysis device) to determine the plasma protein binding rate of the test compound and control compound. Before the experiment was started, the dialysis membrane was pretreated according to the description, and then the dialysis device was assembled as required. The blank plasma of human and SD rats (plasma purchased from BioreclamationIVT) was taken, and the test compound working solution or the warfarin working solution was added to make the final concentration of the test compound and warfarin in the plasma samples both 2 μM. The sample was mixed well. […] The unbound rate (Unbound) %, bound rate (Bound) % and recovery rate (Recovery) % of the compound were calculated by the following formula: % Unbound=100*FC/TC, % Bound=100−% Unbound, % Recovery=100*(FC+TC)/T0. […]

[3] = Plasma protein binding rate (PPB) test, SD rat plasma; type: in vitro ADME; settings: 2 μM, equilibrium dialysis 4 hours 37° C.
Method: as §8, §9, §10

Rat hepatocyte = assay: Metabolic stability (HMS) study in rat hepatocytes; type: in vitro ADME; settings: 0.5×10^6 cells/mL
Method: as §1, §2, §3, §4, §5, §6, §7

Row | Compound | EC50 (Kappa receptor) [nM] | AUC0-last [1] [µM·h] | Cl (total clearance rate) [1] [mL/min/kg] | T1/2 (elimination half-life) [1] [h] | Vdss (steady-state apparent volume of distribution) [1] [L/kg] | C0 ([1]; read-out: C0 (initial concentration)) [µM] | Intrinsic clearance rate in liver (Human hepatocyte) [mL/min/kg] | Unbound rate in plasma [2] [%] | Unbound rate in plasma [3] [%] | Intrinsic clearance rate in liver (Rat hepatocyte) [mL/min/kg]
1 | CC(=O)N1CC2(CCN(C(=O)[C@@H](CCCCN)NC(=O)[C@@H](CC3CC3)NC(=O)[C@@H](Cc3ccccc3)NC(=O)CNC[C@H](C)c3ccccc3)CC2)C1 [Compound 4] (H-[Gly(N-(2R-Ph-propyl))][dF][dAla(cPr)][dK]-X1) | 0.034 | – | – | – | – | – | – | – | – | –
2 | C[C@@H](CNCC(=O)N[C@H](Cc1ccccc1)C(=O)N[C@@H](C(=O)N[C@H](CCCCN)C(=O)N1CCC(N)(C(=O)O)CC1)C1CCCC1)c1ccccc1 [Compound 2] (H-[Gly(N-(2R-Ph-propyl))][dF][dGly(cPent)][dK]-{Piperidin1yl(4-NH2,4-COOH)}) | 0.311 | – | – | – | – | – | – | – | – | –
3 | C[C@@H](CNCC(=O)N[C@H](Cc1ccccc1)C(=O)N[C@H](CC1CC1)C(=O)N[C@H](CCCCN)C(=O)N1CCC(N)(C(=O)O)CC1)c1ccccc1 [Compound 1] (H-[Gly(N-(2R-Ph-propyl))][dF][dAla(cPr)][dK]-{Piperidin1yl(4-NH2,4-COOH)}) | 0.085 | 7.2 | 9.90 | 1.33 | 0.29 | 17.6 | <17.8 | 55.2 | 44.7 | <29.9
